From US8470888B2, “Botryllamides and method of inhibiting PGP in a mammal afflicted with cancer” (The United States of America, as represented by the …, priority 2008, dated 2013)

Experiments:
Type in all cases: cell-based
Pgp = Pgp (Homo sapiens (Human), UniProt P08183); assay: Flow assay, rhodamine 123 efflux in transfected HEK293 cells expressing Pgp; settings: 10 μM compound; 0.5 μg/ml rhodamine 123
MRP1 = MRP1 (Homo sapiens (Human), UniProt P33527); assay: Flow assay, calcein efflux in transfected HEK293 cells expressing MRP1; settings: 10 μM compound; 200 nM calcein AM
ABCG2 = ABCG2 (Homo sapiens (Human), UniProt Q9UNQ0); assay: Pheophorbide a accumulation assay for ABCG2 inhibitors in NCI-H460/MX20 cells; settings: for IC50: 1 μM pheophorbide a, 18 h; for Pheophorbide a max activity, % of FTC response: normalized to 10 μM FTC
Description: Accumulation of pheophorbide a, a fluorescent ABCG2 substrate (Jonker et al., Proc. Natl. Acad. Sci. USA, 99: 15649-54 (2002) and Robey et al., Cancer Res., 64: 1242-6 (2004)), formed the basis of the assay for inhibitors of ABCG2 activity (Henrich et al., J. Biomol. Screen, 11: 176-83 (2006)). Briefly, NCI-H460/MX20 cells are transferred to black wall, clear bottom 384-well polylysine-coated assay plates (Corning, Corning, N.Y.) and allowed to attach for several hours. Pheophorbide a (1 μM final concentration) is added immediately followed by compounds or vehicle (DMSO/PBS) control and incubated an additional 18 h. After removal of medium and washing with PBS containing Ca^2+ and Mg^2+, fluorescence intensity is read on a Tecan Safire fluorescence plate reader in bottom read mode, 395 nm excitation, and 670 nm emission. Each plate has control wells containing 10 μM (final concentration) FTC. Data are normalized to FTC and reported as % of FTC fluorescence.

Chain of MRP1 (P33527 whole entry): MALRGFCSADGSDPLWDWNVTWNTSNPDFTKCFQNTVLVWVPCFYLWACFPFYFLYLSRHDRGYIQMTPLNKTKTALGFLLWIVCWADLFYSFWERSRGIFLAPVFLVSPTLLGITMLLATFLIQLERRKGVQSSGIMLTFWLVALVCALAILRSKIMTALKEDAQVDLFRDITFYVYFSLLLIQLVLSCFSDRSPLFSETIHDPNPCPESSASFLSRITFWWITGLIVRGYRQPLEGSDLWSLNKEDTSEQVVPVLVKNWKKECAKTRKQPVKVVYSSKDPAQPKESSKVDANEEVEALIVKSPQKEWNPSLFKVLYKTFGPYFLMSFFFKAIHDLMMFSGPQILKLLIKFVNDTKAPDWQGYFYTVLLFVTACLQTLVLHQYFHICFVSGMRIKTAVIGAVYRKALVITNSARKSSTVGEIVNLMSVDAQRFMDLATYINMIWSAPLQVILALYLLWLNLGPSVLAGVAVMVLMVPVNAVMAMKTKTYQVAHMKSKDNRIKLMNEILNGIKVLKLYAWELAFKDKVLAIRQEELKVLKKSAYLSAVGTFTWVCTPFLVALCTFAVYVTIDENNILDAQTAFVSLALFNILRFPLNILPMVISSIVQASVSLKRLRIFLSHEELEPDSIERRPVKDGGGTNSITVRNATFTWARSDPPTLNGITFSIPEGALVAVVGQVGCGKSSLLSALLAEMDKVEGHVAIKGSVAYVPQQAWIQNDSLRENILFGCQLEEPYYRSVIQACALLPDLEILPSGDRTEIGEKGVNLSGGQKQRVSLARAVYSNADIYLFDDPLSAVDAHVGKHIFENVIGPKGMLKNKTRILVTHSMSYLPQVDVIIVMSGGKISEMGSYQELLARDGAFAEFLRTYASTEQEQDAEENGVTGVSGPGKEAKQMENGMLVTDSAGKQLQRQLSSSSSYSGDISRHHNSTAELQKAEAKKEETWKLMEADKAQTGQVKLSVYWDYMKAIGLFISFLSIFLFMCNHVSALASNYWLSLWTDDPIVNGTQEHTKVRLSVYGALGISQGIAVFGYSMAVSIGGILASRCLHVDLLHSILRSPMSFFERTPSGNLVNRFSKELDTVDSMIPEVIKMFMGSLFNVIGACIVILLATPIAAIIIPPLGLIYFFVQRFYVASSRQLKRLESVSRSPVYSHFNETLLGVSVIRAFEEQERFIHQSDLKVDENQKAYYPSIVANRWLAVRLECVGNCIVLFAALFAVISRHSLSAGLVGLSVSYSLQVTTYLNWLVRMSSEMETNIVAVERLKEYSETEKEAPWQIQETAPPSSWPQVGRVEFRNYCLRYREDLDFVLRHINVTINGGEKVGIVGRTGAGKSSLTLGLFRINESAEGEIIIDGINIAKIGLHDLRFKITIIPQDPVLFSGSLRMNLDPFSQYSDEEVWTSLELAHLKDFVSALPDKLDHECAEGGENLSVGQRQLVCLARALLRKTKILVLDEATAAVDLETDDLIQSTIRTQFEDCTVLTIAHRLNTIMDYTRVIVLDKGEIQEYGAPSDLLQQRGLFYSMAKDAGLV
Chain of Pgp (P08183 whole entry): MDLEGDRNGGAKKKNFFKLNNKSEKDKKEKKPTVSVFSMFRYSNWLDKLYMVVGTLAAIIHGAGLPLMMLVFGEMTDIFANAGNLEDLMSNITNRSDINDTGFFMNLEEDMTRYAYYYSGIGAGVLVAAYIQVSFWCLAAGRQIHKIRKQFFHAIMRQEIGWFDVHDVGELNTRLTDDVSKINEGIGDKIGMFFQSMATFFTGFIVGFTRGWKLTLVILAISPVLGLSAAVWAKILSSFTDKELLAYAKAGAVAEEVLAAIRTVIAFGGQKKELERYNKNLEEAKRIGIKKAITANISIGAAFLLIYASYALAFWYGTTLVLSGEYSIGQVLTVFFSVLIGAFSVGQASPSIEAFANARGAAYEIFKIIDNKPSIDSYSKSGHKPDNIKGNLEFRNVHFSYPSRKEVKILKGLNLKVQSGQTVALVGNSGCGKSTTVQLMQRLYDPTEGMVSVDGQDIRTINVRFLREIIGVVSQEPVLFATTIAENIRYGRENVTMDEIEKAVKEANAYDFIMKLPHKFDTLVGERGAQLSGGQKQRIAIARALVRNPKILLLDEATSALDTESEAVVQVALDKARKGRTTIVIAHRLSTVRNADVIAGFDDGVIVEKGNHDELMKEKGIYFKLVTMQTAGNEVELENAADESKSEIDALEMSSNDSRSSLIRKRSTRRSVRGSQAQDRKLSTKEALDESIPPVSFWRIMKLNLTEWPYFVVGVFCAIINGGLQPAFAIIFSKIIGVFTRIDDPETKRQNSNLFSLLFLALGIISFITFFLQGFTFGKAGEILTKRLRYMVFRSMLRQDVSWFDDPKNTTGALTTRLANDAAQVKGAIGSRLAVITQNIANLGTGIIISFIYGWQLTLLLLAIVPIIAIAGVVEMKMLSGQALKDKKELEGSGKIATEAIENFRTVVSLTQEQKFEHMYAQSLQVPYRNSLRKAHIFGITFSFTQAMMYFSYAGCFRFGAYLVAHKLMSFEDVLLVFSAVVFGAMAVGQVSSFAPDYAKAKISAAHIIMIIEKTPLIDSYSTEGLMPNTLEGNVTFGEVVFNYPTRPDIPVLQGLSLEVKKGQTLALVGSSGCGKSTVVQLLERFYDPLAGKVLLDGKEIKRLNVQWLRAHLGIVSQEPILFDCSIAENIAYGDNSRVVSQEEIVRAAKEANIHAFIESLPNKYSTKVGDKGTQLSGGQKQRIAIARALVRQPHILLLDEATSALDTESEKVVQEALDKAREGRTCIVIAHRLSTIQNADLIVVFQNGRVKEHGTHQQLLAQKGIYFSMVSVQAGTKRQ
Chain of ABCG2 (Q9UNQ0 whole entry): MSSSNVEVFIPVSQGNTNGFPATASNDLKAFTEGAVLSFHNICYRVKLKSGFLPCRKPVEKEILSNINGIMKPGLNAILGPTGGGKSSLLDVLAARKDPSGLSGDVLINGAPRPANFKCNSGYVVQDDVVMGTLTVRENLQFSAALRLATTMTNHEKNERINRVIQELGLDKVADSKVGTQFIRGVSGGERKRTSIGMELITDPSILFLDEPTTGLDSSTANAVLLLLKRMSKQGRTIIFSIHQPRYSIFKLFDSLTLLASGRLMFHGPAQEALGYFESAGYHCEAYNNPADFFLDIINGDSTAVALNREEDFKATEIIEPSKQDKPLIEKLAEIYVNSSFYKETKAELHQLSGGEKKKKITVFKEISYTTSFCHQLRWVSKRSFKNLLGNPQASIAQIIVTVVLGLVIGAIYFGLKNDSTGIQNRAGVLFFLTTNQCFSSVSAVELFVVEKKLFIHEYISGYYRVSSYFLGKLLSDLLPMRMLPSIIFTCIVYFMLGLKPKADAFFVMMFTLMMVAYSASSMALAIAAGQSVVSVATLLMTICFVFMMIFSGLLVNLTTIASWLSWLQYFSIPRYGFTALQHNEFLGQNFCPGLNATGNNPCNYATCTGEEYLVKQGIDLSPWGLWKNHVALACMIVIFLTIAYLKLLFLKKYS

| Compound | Flow-Pgp, Fold Increase (Pgp inhibition, rhodamine efflux: treated/control ratio) (Pgp) [fold] | Flow-MRP1, Fold Increase (MRP1 inhibition, calcein efflux: treated/control ratio) (MRP1) [fold] | IC50 (ABCG2) [µM] | Pheophorbide a max activity, % of FTC response (ABCG2; 80 μM compound) [%] | Pheophorbide a max activity, % of FTC response (ABCG2; 40 μM compound) |
| --- | --- | --- | --- | --- | --- |
| CO/C(=C\c1ccc(O)cc1)C(=O)N/C=C/c1cc(Br)c(OC)c(Br)c1 [Botryllamide A, botryllamide A] | 17.63 | 4.5 | 33 | 89.7 | – |
| CO/C(=C\c1ccc(O)cc1)C(=O)N/C=C/c1ccc(OC)c(Br)c1 [Botryllamide D, botryllamide D] | 1.49 | 2.39 | 16.4 | 63.5 | – |
| CO/C(=C\c1ccc(O)cc1)C(=O)N/C=C/c1ccc(OC)cc1 [Botryllamide E, botryllamide E] | 0.76 | 1.96 | 23.3 | 68.8 | – |
| CO/C(=C\c1ccc(O)cc1)C(=O)N/C=C/c1ccc(O)cc1 [Botryllamide F, botryllamide F] | 0.59 | 3.33 | 16.7 | 81.0 | – |
| CO/C(=C\c1ccc(O)cc1)C(=O)N/C=C/c1cc(Br)c(O)c(Br)c1 [Botryllamide G, botryllamide G] | 0.68 | 2.1 | 6.9 | – | 123.7 (40 μM) % |
| CO/C(=C\c1ccc(O)cc1)C(=O)N/C=C/c1ccc(OC)cc1 [Botryllamide I, botryllamide I] | 0.8 | 3.14 | 41.4 | 71.3 | – |
| botryllamide B | 1.95 | 3.26 | 11.2 | – | 84.3 (40 μM) % |
| botryllamide J | 0.58 | 2.54 | 26.9 | 70.5 | – |
